Results: paper PMC5811606, “Characterization of ^111In-labeled Glucose-Dependent Insulinotropic Polypeptide as a Radiotracer for Neuroendocrine Tumors” (Scientific Reports, 2018)
Read-outs that look alike come from different tables or passages of the source.

Test: Peptide dose escalation study, BHK-GIPR tumor mice
Assay type: in vivo, BALB/c nude mice
Conditions: female, mouse, iv, total radioactivity, BHK-GIPR tumor BALB/c nude mice, i.v., 4 h p.i., mean n=5
Description: All animal experiments were approved by the Animal Welfare Body of the Radboud University, Nijmegen, The Netherlands and carried out in accordance with their guidelines. Six to eight weeks old, female BALB/c nude mice and C3H mice were purchased from Janvier labs (Le Genest Saint Isle, France). For all in vivo experiments, 6-8 weeks old female BALB/c nude mice were injected subcutaneously in the right shoulder with 0.2 ml of a 2.5 × 10^7 cells/ml suspension of BHK-GIPR transfected cells or with 0.2 ml of a 2.5 × 10^7 cells/ml suspension of NES2Y cells mixed with matrigel (2:1) in the right shoulder. When the tumor reached a diameter of 2-5 mm, mice were randomly divided in groups.
To determine the optimal peptide dose of [Lys^37(DTPA)]N-acetyl-GIP1-42, BHK-GIPR transfected tumor bearing BALB/c nude mice (n = 5/group) were injected intravenously with approximately 3 MBq [Lys^37(^111In-DTPA)]N-acetyl-GIP1-42 (0.05 µg) in the tail vein and were co-injected with escalating amounts of unlabeled [Lys^37(DTPA)]N-acetyl-GIP1-42 (0.05 µg – 1.95 µg), resulting in final peptide doses ranging from 0.1 to 2 µg/mouse (0.02 – 0.4 nmol/mouse) (5 groups, n = 5/group). Four hours after injection, mice were euthanized by CO2/O2 suffocation and tumors and other relevant tissues (heart, muscle, lung, spleen, pancreas, kidney, liver, stomach and duodenum) were dissected, weighed and measured in a well type gamma counter. The percentage injected dose per gram of tissue (%ID/g) was determined for each tissue.

Q: Which results are given for CC[C@H](C)[C@H](NC(=O)[C@H](CO)NC(=O)[C@H](Cc1ccc(O)cc1)NC(=O)[C@H](CC(=O)O)NC(=O)[C@H](CO)NC(=O)[C@@H](NC(=O)[C@H](Cc1ccccc1)NC(=O)[C@@H](NC(=O)CNC(=O)[C@H](CCC(=O)O)NC(=O)[C@H](C)NC(=O)[C@H](Cc1ccc(O)cc1)NC(C)=O)[C@@H](C)O)[C@@H](C)CC)C(=O)N[C@@H](C)C(=O)N[C@@H](CCSC)C(=O)N[C@@H](CC(=O)O)C(=O)N[C@@H](CCCCN)C(=O)N[C@H](C(=O)N[C@@H](Cc1c[nH]cn1)C(=O)N[C@@H](CCC(N)=O)C(=O)N[C@@H](CCC(N)=O)C(=O)N[C@@H](CC(=O)O)C(=O)N[C@@H](Cc1ccccc1)C(=O)N[C@H](C(=O)N[C@@H](CC(N)=O)C(=O)N[C@@H](Cc1c[nH]c2ccccc12)C(=O)N[C@@H](CC(C)C)C(=O)N[C@@H](CC(C)C)C(=O)N[C@@H](C)C(=O)N[C@@H](CCC(N)=O)C(=O)N[C@@H](CCCCN)C(=O)NCC(=O)N[C@@H](CCCCN)C(=O)N[C@@H](CCCCN)C(=O)N[C@@H](CC(N)=O)C(=O)N[C@@H](CC(=O)O)C(=O)N[C@@H](Cc1c[nH]c2ccccc12)C(=O)N[C@@H](CCCCNC(=O)CN(CCN(CCN(CC(=O)O)CC(=O)O)CC(=O)O)CC(=O)O)C(=O)N[C@@H](Cc1c[nH]cn1)C(=O)N[C@@H](CC(N)=O)C(=O)N[C@H](C(=O)N[C@H](C(=O)N[C@@H](CCC(N)=O)C(=O)O)[C@@H](C)O)[C@@H](C)CC)C(C)C)[C@@H](C)CC [[Lys^37(^111In-DTPA)]N-acetyl-GIP1-42, metal not drawn]?
A: tissue uptake at 4 h (pancreas, 0.1 ug/mouse, peptide dose 0.1 µg, read-out: Pancreas uptake): 0.169 %ID/g; tissue uptake at 4 h (pancreas, 0.2 ug/mouse, peptide dose 0.2 µg, read-out: Pancreas uptake): 0.234 %ID/g; tissue uptake at 4 h (pancreas, 0.5 ug/mouse, peptide dose 0.5 µg, read-out: Pancreas uptake): 0.199 %ID/g; tissue uptake at 4 h (pancreas, 1 ug/mouse, peptide dose 1 µg, read-out: Pancreas uptake): 0.257 %ID/g; tissue uptake at 4 h (pancreas, 2 ug/mouse, peptide dose 2 µg, read-out: Pancreas uptake): 0.213 %ID/g; tissue uptake at 4 h (spleen, 0.1 ug, peptide dose 0.1 µg, read-out: Spleen uptake): 0.648 %ID/g; tissue uptake at 4 h (spleen, 0.2 ug, peptide dose 0.2 µg, read-out: Spleen uptake): 0.692 %ID/g; tissue uptake at 4 h (spleen, 0.5 ug, peptide dose 0.5 µg, read-out: Spleen uptake): 0.594 %ID/g; tissue uptake at 4 h (spleen, 1 ug, peptide dose 1 µg, read-out: Spleen uptake): 0.781 %ID/g; tissue uptake at 4 h (spleen, 2 ug, peptide dose 2 µg, read-out: Spleen uptake): 0.713 %ID/g; tissue uptake at 4 h (stomach, 0.1 ug/mouse, peptide dose 0.1 µg, read-out: Stomach uptake): 0.41 %ID/g; tissue uptake at 4 h (stomach, 0.2 ug/mouse, peptide dose 0.2 µg, read-out: Stomach uptake): 0.418 %ID/g; tissue uptake at 4 h (stomach, 0.5 ug/mouse, peptide dose 0.5 µg, read-out: Stomach uptake): 0.411 %ID/g; tissue uptake at 4 h (stomach, 1 ug/mouse, peptide dose 1 µg, read-out: Stomach uptake): 0.527 %ID/g; tissue uptake at 4 h (stomach, 2 ug/mouse, peptide dose 2 µg, read-out: Stomach uptake): 0.437 %ID/g; tissue to tissue ratio at 4 h (tumor/blood, 2 ug/mouse, peptide dose 2 µg, read-out: Tumor/Blood): 38; tissue to tissue ratio at 4 h (tumor/heart, 0.1 ug/mouse, peptide dose 0.1 µg, read-out: Tumor/Heart): 35.6; tissue to tissue ratio at 4 h (tumor/heart, 0.2 ug/mouse, peptide dose 0.2 µg, read-out: Tumor/Heart): 33.1; tissue to tissue ratio at 4 h (tumor/heart, 0.5 ug/mouse, peptide dose 0.5 µg, read-out: Tumor/Heart): 14.6; tissue to tissue ratio at 4 h (tumor/heart, 1 ug/mouse, peptide dose 1 µg, read-out: Tumor/Heart): 16.4; tissue to tissue ratio at 4 h (tumor/heart, 2 ug/mouse, peptide dose 2 µg, read-out: Tumor/Heart): 11.2; tissue to tissue ratio at 4 h (tumor/kidney, 0.1 ug/mouse, peptide dose 0.1 µg, read-out: Tumor/Kidney): 0.02; tissue to tissue ratio at 4 h (tumor/kidney, 0.2 ug/mouse, peptide dose 0.2 µg, read-out: Tumor/Kidney): 0.019; tissue to tissue ratio at 4 h (tumor/kidney, 0.5 ug/mouse, peptide dose 0.5 µg, read-out: Tumor/Kidney): 0.011; tissue to tissue ratio at 4 h (tumor/kidney, 1 ug/mouse, peptide dose 1 µg, read-out: Tumor/Kidney): 0.01; tissue to tissue ratio at 4 h (tumor/kidney, 2 ug/mouse, peptide dose 2 µg, read-out: Tumor/Kidney): 0.008; tissue to tissue ratio at 4 h (tumor/lung, 0.1 ug/mouse, peptide dose 0.1 µg, read-out: Tumor/Lung): 13; tissue to tissue ratio at 4 h (tumor/lung, 0.2 ug/mouse, peptide dose 0.2 µg, read-out: Tumor/Lung): 10; tissue to tissue ratio at 4 h (tumor/lung, 0.5 ug/mouse, peptide dose 0.5 µg, read-out: Tumor/Lung): 4.18; tissue to tissue ratio at 4 h (tumor/lung, 1 ug/mouse, peptide dose 1 µg, read-out: Tumor/Lung): 4.81; tissue to tissue ratio at 4 h (tumor/lung, 2 ug/mouse, peptide dose 2 µg, read-out: Tumor/Lung): 3.58; tissue to tissue ratio at 4 h (tumor/muscle, 0.1 ug/mouse, peptide dose 0.1 µg, read-out: Tumor/Muscle): 33.7; tissue to tissue ratio at 4 h (tumor/muscle, 0.2 ug/mouse, peptide dose 0.2 µg, read-out: Tumor/Muscle): 41.1; tissue to tissue ratio at 4 h (tumor/muscle, 0.5 ug/mouse, peptide dose 0.5 µg, read-out: Tumor/Muscle): 19.1; tissue to tissue ratio at 4 h (tumor/muscle, 1 ug/mouse, peptide dose 1 µg, read-out: Tumor/Muscle): 20.9; tissue to tissue ratio at 4 h (tumor/muscle, 2 ug/mouse, peptide dose 2 µg, read-out: Tumor/Muscle): 12.2
